Reference: patent publication US6355428B1, “Nucleic acid ligand interaction assays” (Genelabs Technologies, Inc., priority 1998, dated 2002)

Test system: CTTTATTATTTT (AT-rich) DNA duplex (SEQ ID NO: 2)
Assay: SPA direct binding assay, A/T-rich indicator duplex
From the text: This technology can be applied to studies of ligand binding as disclosed herein. Example 13, below, describes the use of the assay in a high throughput screening method, using the SPA detection system. In this example, the first oligonucleotide is labeled with biotin, and is then tightly bound to streptavidin-coated SPA beads via the strong biotin/streptavidin interaction. These beads are impregnated with scintillant. The second oligonucleotide is labeled with a weak β-emitter, such as ^3H or ^33P. The radioactive second oligonucleotide is mixed with a solution of the beads under conditions at which the first and second oligonucleotides exist primarily as single strands, as described above. The signal will thus be low, as the oligonucleotides are non-hybridized. When ligand is added, the duplex form is stabilized, and the increased proximity of the radioactive isotope (e.g., ^3H, ^33P) in the second oligonucleotide causes the bead to which the first oligonucleotide is bound to scintillate. A signal thus indicates the presence of an effective binding ligand molecule; test sequences giving higher signals indicate the relative preference for different sequences.
The data in Table II compare raw signal counts from SPA assays using three different oligonucleotides and three concentrations (0, 100, and 500 nM) of the DNA binding drug distamycin. The oligonucleotides used were G/C-rich (CCGCGCC; SEQ ID NO: 6), A/T-rich (CTTTATTATTTT; SEQ ID NO: 2), or mixed sequence (GCGGTATTT; SEQ ID NO: 12) DNA duplexes. One strand of the duplex was synthesized with a 5′-biotin label, the other strand was labeled with ^33P, as described in Example 13.
Indicator oligonucleotides as shown in Table 1 were used in this assay, as shown in Table II and FIGS. 4A-E. One strand of each duplex was labeled with biotin at the 5′-end, and the complementary strand was 3′-labeled with ^33P. The two complementary strands were incubated with streptavidin-coated SPA beads (Amersham, Arlington Heights, Ill.) at room temperature in a buffer containing 20 mM HEPES, pH 7.5, 0.1 mM EDTA, and 20 mM NaCl. In the absence of ligand, and under these conditions, the oligonucleotides exist in single-stranded conformation. As a result, the oligonucleotide containing the radioactive label is not in close proximity to the SPA bead, and the light given off by the beads is low, i.e., at background. As a duplex-stabilizing ligand is added, the radioactive ^33P is brought into close proximity to the SPA bead, and the light emitted from the SPA bead increases. Accordingly, each of five known DNA-binding compounds was added in increasing concentrations, and the effect on scintillation count was observed, giving the results shown in FIGS. 4A-E.

Cn1cc(NC(=O)c2cc(NC(=O)c3cc(NC=O)cn3C)cn2C)cc1C(=O)NCCC(=N)N [Distamycin, distamycin]
CPM (100 nM Distamycin, 10 mM Na+): 2218 CPM | CPM (100 nM Distamycin, 50 mM Na+): 2448 CPM | CPM (500 nM Distamycin, 10 mM Na+): 3332 CPM | CPM (500 nM Distamycin, 50 mM Na+): 3352 CPM
